Experimental data: patent publication US20190307908A1, “NANOEMULSION AGENTS FOR ULTRASOUND DIAGNOSTIC AND THERAPY” (University of Washington, priority 2018, published 2019)

Assays:
[1] = maximum PFC dissolved in ethanol; format: physicochemical; settings: in ethanol (co-solvent)
Description: PFC ouzo droplets were synthesized by first dissolving a PFC into ethanol (co-solvent). A maximum of approximately 2.0% perfluorohexane (C6F14, TBoiling=56° C.), 2.3% perfluoropentane (C5F12, TBoiling=29° C.), 2.5% perfluorobutane (C4F10, TBoiling=2° C.), and 2.7% perfluoropropane ([…], TBoiling=−37° C.) by volume could be dissolved in ethanol. In the ethanol phase, a 20:1 mole ratio of dipalmitoylphosphatidylcholine (DPPC) and N-(Methylpolyoxyethylene oxycarbonyl)-1,2-distearoyl-sn-glycero-3-phosphoethanolamine sodium salt (DSPE-PEG 2K) lipids were also dissolved. The total lipid concentration was varied from 0.10 mg/ml to 1.82 mg/ml depending on the volume of perfluorocarbon that was used. […] However, lower concentration lipids solutions were not used to ensure ample lipids were in solution to stabilize the droplet interface. […] When an aqueous solution (solvent) prepared at a ratio of 7:2:1 water/propylene glycol/glycerol is added to the PFC/ethanol solution, the PFC oil phase quickly loses solubility resulting in the spontaneous nucleation of stable droplets (FIG. 2). Since PFCs are known to have very poor solubility in water, the greater the water content relative to ethanol, the lower the PFC solubility is in the final mixed solvent. The inclusion of glycerol and propylene glycol is optional for droplet nucleation. For example, PFC emulsions can also be generated in the absence of any stabilizer (FIGS. 8 and 9). However, glycerol and propylene glycol are commonly used along with lipid mixtures to improve microbubble stability. Here, glycerol and propylene glycol were also included in the ouzo droplet formulation to make the agent composition analogous to microbubbles and to increase stability.
The lipid-ethanol stock solution was then divided as needed. Using a stir plate, PFCs were then dissolved in the lipid-ethanol solution until it was fully saturated. For liquid PFCs (i.e. PFH and PFP), the PFC oil was incrementally added to the stirred ethanol solution until a small droplet of PFC formed in solution. The solution was then removed from the stir plate and allowed to rest at room temperature for approximately 20 minutes, enabling excess PFC to fall to the bottom of the container. For gaseous PFCs (i.e. PFB and OFP), PFC gas was bubbled into a sealed glass vial with the ethanol solution at a pressure of 1.5-2.0 PSI while on ice. It was bubbled through for a minimum of 2 minutes and purged 3 times to ensure the headspace was filled with gaseous PFC. Then, the PFC-lipid-ethanol solution was pipetted into a clean glass vial and diluted as needed using additional lipid-ethanol solution to achieve the desired PFC in ethanol saturation percentage. […]

rat spinal cord = test: ultrasound contrast imaging in a rat spinal cord model; format: in vivo, Sprague-Dawley rat; settings: bolus via tail vein, 15 MHz linear array, harmonic imaging
Description: Ouzo-synthesized droplets were used as an ultrasound contrast agent in a rat spinal cord model (FIGS. 7A-7D). Surgical procedures were performed according to approved institutional animal care and use committee (IACUC) protocol following all appropriate guidelines from the university's Animal Welfare Assurance (A3464-01) as well as the NIH Office of Laboratory Animal Welfare (OLAW). A laminectomy was performed to remove the top surface of spine vertebrae, exposing the spinal cord. A bolus injection of perfluorobutane droplets ([…]) with a mean diameter of 182 nm was administered via tail vein and imaged using a 15 MHz linear array ultrasound transducer. […] Harmonic imaging was necessary to suppress intrinsic linear signals from this tissue model and to highlight the non-linear signals that are generated from bubble oscillations.
Surgical procedures were performed according to approved institutional animal care and use committee (IACUC) protocol following all appropriate guidelines from the university's Animal Welfare Assurance (A3464-01) as well as the NIH Office of Laboratory Animal Welfare (OLAW). A 0.2 ml bolus injection of perfluorobutane droplets diluted to approximately 10^6 droplet/ml was injected via tail vein in an anesthetized female Sprague-Dawley rat. An ultrasound imaging window was made by performing a laminectomy to expose the spinal cord between T6 and T10. […]

| SMILES | maximum that could be dissolved in ethanol [1] | ultrasound contrast enhancement after injection (rat spinal cord) |
| --- | --- | --- |
| FC(F)(F)C(F)(F)C(F)(F)C(F)(F)F [perfluorobutane] | ~2.5 % by volume | – |
| FC(F)(F)C(F)(F)C(F)(F)C(F)(F)C(F)(F)C(F)(F)F [perfluorohexane] | approximately 2.0 % by volume | nearly zero contrast enhancement |
| FC(F)(F)C(F)(F)C(F)(F)C(F)(F)C(F)(F)F [perfluoropentane] | ~2.3 % by volume | nearly zero contrast enhancement |
| FC(F)(F)C(F)(F)C(F)(F)F [perfluoropropane] | ~2.7 % by volume | – |
